Broadly, the solubility (kinetic) is solubility judged after dilution from a stock solution rather than from solid.

Values after ≈ are worked out from the molar mass of the structure shown.

For this series the following is noted: buffer; pH 7.4; 200.0 µM.
`O=C1c2ccc([N+](=O)[O-])cc2C(=O)N1Cc1cccnc1` displayed a solubility (kinetic) greater than 42.5 µg/mL.
The figure for `CC(C)CCSc1cc(NCCO)c([N+](=O)[O-])c2nonc12` is 10 µg/mL (≈ 30.6 µM).
In turn, `CC(CCc1ccccc1)NC(=O)c1ccccc1Cl` (centres undefined) displayed a kinetic solubility of 41.6 µg/mL (≈ 145 µM).
Regarding `CC(=O)Nc1ccc(S(=O)(=O)NCC2CCCO2)cc1` (centres undefined), the kinetic solubility was greater than 44.8 µg/mL.
The figure for `CN(C)CCNC(=S)NC1CCCCC1` is 32.7 µg/mL (≈ 143 µM); for `O=C(O)C(=O)O.OC(CN1CCCC1)Cn1ccc2ccccc21` (centres undefined) it is greater than 50.2 µg/mL.
For the molecule `O=c1[nH]c(SCc2ccc(Cl)cc2)nc2ccccc12`, the kinetic solubility is 0.8 µg/mL (≈ 2.64 µM).
With `CCc1cc(C(=O)NC(C)C2CCCO2)cs1` (centres undefined), the solubility (kinetic) was greater than 38 µg/mL.
With `O=C(Nc1ccc(F)cc1)N1CCCCCC1` the figure was greater than 35.4 µg/mL; with `CCN1CCc2c(OCC(=O)N3CCCc4ccccc43)cccc2C1=O`, greater than 54.7 µg/mL.
Molecule `Cc1cccc(OCc2nc3ccccc3n2C)c1.Cl` had a solubility (kinetic) of 30.4 µg/mL.
In turn, `CC(=O)C1=C(O)C(=O)N(CCO)C1c1ccccc1` (centres undefined) showed a solubility (kinetic) greater than 39.2 µg/mL.
The figure for `Cc1cnc(NC(=O)Cc2ccc(C)c(C)c2)s1` is 2 µg/mL (≈ 7.68 µM); for `N#CCCN(C(=S)NC(=O)C1CCCCC1)c1ccccc1F` it is greater than 50 µg/mL; for `Cl.O=C1CC[C@@]2(O)[C@H]3Cc4ccc(O)c5c4[C@@]2(CCN3CC2CC2)[C@H]1O5` it is greater than 56.7 µg/mL.
For `Cc1nn(C)c(C)c1NS(=O)(=O)c1ccccc1Cl`, the solubility (kinetic) is greater than 45 µg/mL.
With `CCN(CC)c1ccc(/C=C2\SC(N)=NC2=O)cc1` the figure was less than 0.2 µg/mL; with `CCCc1cc(C(=O)Nc2ccc(OC)cc2[N+](=O)[O-])cs1`, less than 0.3 µg/mL; with `Cc1ccc2nc3cc([N+](=O)[O-])cc([N+](=O)[O-])c3cc2c1`, 0.8 µg/mL (≈ 2.82 µM).
The figure for `CC(C)CCN(C(=S)Nc1cccc(F)c1)C(C)c1cccs1` (centres undefined) is 3.2 µg/mL (≈ 9.13 µM); for `Cc1cc2ccccn2c1C(=O)c1ccc([N+](=O)[O-])o1` it is 1.3 µg/mL (≈ 4.81 µM).
The figure for `Cc1ccc(-c2nc(Cl)nc3ccccc23)cc1` is 1.7 µg/mL (≈ 6.67 µM).
`Cc1noc(C(=O)Nc2cccc(Cl)c2)c1Cl` came in with a solubility (kinetic) of 2 µg/mL (≈ 7.38 µM).
The molecule `O=c1c2[nH]c3ccc(F)cc3c2ncn1CC1CCCO1` (centres undefined) registered a kinetic solubility of 3.9 µg/mL (≈ 13.6 µM).
Molecule `Cc1ccc(NC(=O)CN(C)C(=O)Cc2ccccc2F)cc1` returned a solubility (kinetic) greater than 47.2 µg/mL.
In turn, `N#C/C(=C/c1cc[nH]c1)C(N)=S` had a kinetic solubility greater than 26.6 µg/mL.
The molecule `COc1cc2c(C(=O)O)c(C)n(-c3ccccc3)c2c2ccccc12` came in with a kinetic solubility of 1.3 µg/mL (≈ 3.92 µM).
The molecule `Cl.NC(=S)NC(c1ccccc1)c1ccncc1` (centres undefined) showed a kinetic solubility of 39.5 µg/mL.
`Cn1c(N)c(N=O)c(=O)n(C)c1=O`: the solubility (kinetic) is greater than 27.6 µg/mL.
With `CC(NC(=O)c1c(F)cccc1Cl)c1ccc(-n2ccnc2)cc1` (centres undefined) the figure was greater than 51.6 µg/mL.
The molecule `CC(C)Nc1nc(N)c(C(=O)C23CC4CC(CC(C4)C2)C3)s1` registered a solubility (kinetic) of 0.3 µg/mL (≈ 0.939 µM).
In turn, `O=C(CS(=O)(=O)c1ccccc1)Nc1nccs1` came in with a solubility (kinetic) greater than 42.3 µg/mL.
With `Cc1cc(C)c2c(N)c(C(=O)Nc3ccc(C)c(C)c3)sc2n1` the figure was 1.1 µg/mL (≈ 3.38 µM); with `CN(c1ccccc1)S(=O)(=O)c1cccc(NC(=O)c2ccc(Cl)c([N+](=O)[O-])c2)c1`, 1.8 µg/mL (≈ 4.04 µM).
The molecule `CCC(=O)OCCNc1cc(SCCC(=O)OC)c2nonc2c1[N+](=O)[O-]` returned a solubility (kinetic) of 54.9 µg/mL (≈ 138 µM).
Consider `CC(C)N(C(=S)Nc1cccnc1)c1ccccc1`, for which the solubility (kinetic) is 32.8 µg/mL (≈ 121 µM).
The molecule `Cc1cccc(OCC(O)CN2CCOCC2)c1.Cl` (centres undefined) gave a kinetic solubility greater than 43.2 µg/mL.
`CCOC(=O)c1sc2nc(C)[nH]c(=O)c2c1C` showed a kinetic solubility of 2.7 µg/mL (≈ 10.7 µM).
The figure for `O=C(CSc1ccc([N+](=O)[O-])cc1)OCC(=O)N1CCCC1=O` is 50.3 µg/mL (≈ 149 µM).
The figure for `CN(C(=S)Nc1cccnc1)c1ccc(O)cc1` is 29 µg/mL (≈ 112 µM); for `CCC(Oc1ccccc1OC)C(=O)Nc1ccc2c(c1)n(C)c(=O)n2C` (centres undefined) it is greater than 55.4 µg/mL.
For `C=CCOC(=O)/C(=C/c1cccnc1)NC(=O)c1ccccc1`, the solubility (kinetic) amounted to 43.4 µg/mL (≈ 141 µM).
The figure for `CCC(C)n1c(O)c(C=NC(C)c2ccccc2)c(=O)[nH]c1=S` (centres undefined) is 4.3 µg/mL (≈ 13 µM).
`Cc1ccc(N(CCC#N)C(=O)COC(=O)c2ccccn2)cc1` displayed a kinetic solubility greater than 48.5 µg/mL.
The figure for `COc1ccc2nc(N/C(N)=N/S(C)(=O)=O)nc(C)c2c1` is 3.1 µg/mL (≈ 10 µM); for `CC1CCN(C(=O)CNC(=O)c2ccc(Br)o2)CC1` it is greater than 49.4 µg/mL; for `COC(=O)COc1ccc(S(=O)(=O)N2CCCCCC2)cc1C` it is 39.3 µg/mL (≈ 115 µM).
Turning to `O=C(NCC(=O)N1CCN(c2ccccc2)CC1)c1cccs1`, the solubility (kinetic) was greater than 49.4 µg/mL.
For `COc1ccc(CNC(=O)C2CCN(C(=O)c3ccccc3)CC2)cc1`, the solubility (kinetic) was greater than 52.9 µg/mL.
The molecule `Cc1ccc(C(=O)NCC(=O)NC2CC2)cc1` showed a solubility (kinetic) of 33.4 µg/mL (≈ 144 µM).
Molecule `CC(C)C(OC(=O)c1ccc(Cl)nc1)C(=O)NC1CCCCC1` (centres undefined) had a kinetic solubility of 29.7 µg/mL (≈ 87.7 µM).
`CCN(CC)S(=O)(=O)c1ccc(N2CCOCC2)c(NC(=O)c2ccco2)c1`: the solubility (kinetic) was greater than 61.1 µg/mL.
`CN(C(=O)COC(=O)c1cccc(Cl)c1)C1CCS(=O)(=O)C1` (centres undefined) gave a kinetic solubility greater than 51.9 µg/mL.
In the case of `O=C1CSC(c2ccc([N+](=O)[O-])cc2)N1c1ccc(O)cc1` (centres undefined), the solubility (kinetic) was determined as 46.4 µg/mL (≈ 147 µM).
In turn, `CC(C)n1c(N2CCCC2)nc2c1c(=O)[nH]c(=O)n2C` yielded a kinetic solubility greater than 41.6 µg/mL.
`Cn1c(-c2cc3ccccc3oc2=O)nc2ccccc21` displayed a kinetic solubility of 2.5 µg/mL (≈ 9.05 µM).
In turn, `Cc1ccccc1-c1nc(C(=O)NCC2CCCO2)cc2c1[nH]c1ccccc12` (centres undefined) came in with a solubility (kinetic) of 3.2 µg/mL (≈ 8.3 µM).
On to `Cc1ccc(OCC(=O)Nc2c[nH]c(=O)[nH]c2=O)cc1C`, for which the kinetic solubility was 1 µg/mL (≈ 3.46 µM).
The figure for `O=C(O)C1c2ccccc2C(=O)N(Cc2ccc(F)cc2)C1c1ccncc1` (centres undefined) is greater than 56.5 µg/mL; for `COc1ccc(S(=O)(=O)N2CCCC2c2cccs2)cc1` (centres undefined) it is 27.4 µg/mL (≈ 84.7 µM); for `O=C(COc1ccc(C2SCCS2)cc1)Nc1ccc(Cl)cc1` it is less than 0.8 µg/mL.
In turn, `COc1ccc(CCC(C)NCCc2ccc(Cl)cc2Cl)cc1` (centres undefined) gave a solubility (kinetic) of 21.4 µg/mL (≈ 60.7 µM).
With `NC(=O)c1ccsc1NC(=O)COC(=O)/C=C/c1ccccc1[N+](=O)[O-]` the figure was 4.3 µg/mL (≈ 11.5 µM).
With `Cc1ccc(C(=O)Nc2nc(-c3ccccn3)cs2)o1` the figure was 37.1 µg/mL (≈ 130 µM); with `CCc1ccc(C(C)NC(=O)C2CCCO2)cc1` (centres undefined), 34.9 µg/mL (≈ 141 µM).
In turn, `Cc1ccc(NC(=O)Cn2cc(C=O)c3ccccc32)cc1C` came in with a kinetic solubility of less than 0.3 µg/mL.
With `C=CCOc1nc(-c2ccccc2Cl)nc2ccccc12` the figure was 0.7 µg/mL (≈ 2.36 µM).
In turn, `Cc1ccc(C(C)NC(=O)c2cccnc2)cc1` (centres undefined) yielded a kinetic solubility of 33.5 µg/mL (≈ 139 µM).
Regarding `O=C(O)c1ccc(N/C(=N\S(=O)(=O)c2ccc(Cl)cc2)c2ccccc2)cc1`, the solubility (kinetic) stood at 56.3 µg/mL (≈ 136 µM).
The figure for `O=C(Nc1nccs1)c1ccc(-c2ccccc2[N+](=O)[O-])o1` is 5.6 µg/mL (≈ 17.8 µM).
The figure for `CCOc1ccc2[nH]c3c(NCC(C)C)ncnc3c2c1` is 5.1 µg/mL (≈ 17.9 µM); for `Cc1cccc2c3c([nH]c12)CCN(C)C3` it is greater than 30 µg/mL.
Turning to `O=C(NCCNc1ccc([N+](=O)[O-])cc1)c1ccc(Cl)cc1`, the solubility (kinetic) amounted to 1.9 µg/mL (≈ 5.94 µM).
For `Nc1nnc(SCC(=O)OCC(=O)c2ccccc2)s1`, the kinetic solubility is greater than 46.4 µg/mL.

These data come from PubChem BioAssay AID1996.
